Calls of active or inactive are those of the source. The calls are words filed in the database; no cut-off is given here.
What was measured:
MDA-MB-231 [1] = experiment: Antiproliferative activity against human MDA-MB-231 cells assessed as inhibition of cell growth incubated for 72 hrs by SRB method; type: functional, cell-based; conditions: MDA-MB-231, 72 h
[2] = molecular target: T1, Signal transducer and activator of transcription 3 (Homo sapiens, UniProt P40763); experiment: Inhibition of STAT3 phosphorylation at Tyr705 residue in human BT-549 cells at 0.1 uM by Western blot analysis; type: cell-based; conditions: time 8-48 hrs
[3] = molecular target: T1, Signal transducer and activator of transcription 3; experiment: Inhibition of STAT3 phosphorylation at Tyr705 residue at Tyr705 residue in human MDA-MB-231 cells measured after 8 to 48 hrs by Western blot analysis; type: cell-based; conditions: dose 0.1 µM, time 8-48 hrs
MDA-MB-231 [4] = experiment: Downregulation of cyclin D1 level in human MDA-MB-231 cells measured after 48 hrs by Western blot analysis; type: functional, cell-based; conditions: dose 0.05-0.5 µM
MDA-MB-231 [5] = experiment: Downregulation of Bcl-xl level in human MDA-MB-231 cells measured after 48 hrs by Western blot analysis; type: functional, cell-based; conditions: dose 0.05-0.5 µM
BT-549 [6] = experiment: Downregulation of Bcl-xl level in human BT-549 cells measured after 48 hrs by Western blot analysis; type: functional, cell-based; conditions: dose 0.05-0.5 µM
Homo sapiens = species: Homo sapiens; experiment: Inhibition of SRC phosphorylation (unknown origin) at […] residue at upto 10 uM
MDA-MB-231 [7] = experiment: Effect on JAK1 phosphorylation level in human MDA-MB-231 cells at 0.05 to 0.5 uM measured after 48 hrs by Western blot analysis; type: functional, cell-based; conditions: dose 0.05-0.5 µM
MDA-MB-231 [8] = experiment: Effect on STAT1 phosphorylation level in human MDA-MB-231 cells at 0.05 to 0.5 uM measured after 48 hrs by Western blot analysis; type: functional, cell-based; conditions: dose 0.05-0.5 µM
MDA-MB-231 [9] = experiment: Effect on STAT5 phosphorylation level in human MDA-MB-231 cells at 0.05 to 0.5 uM measured after 48 hrs by Western blot analysis; type: functional, cell-based; conditions: dose 0.05-0.5 µM
BT-549 [10] = experiment: Effect on Akt phosphorylation level in human BT-549 cells at 0.05 to 0.5 uM measured after 48 hrs by Western blot analysis; type: functional, cell-based; conditions: dose 0.05-0.5 µM
BT-549 [11] = experiment: Effect on STAT1 phosphorylation level in human BT-549 cells at 0.05 to 0.5 uM measured after 48 hrs by Western blot analysis; type: functional, cell-based; conditions: dose 0.05-0.5 µM
BT-549 [12] = experiment: Inhibition of colony formation in human BT-549 cells measured after 14 days by crystal violet staining based analysis; type: functional, cell-based; conditions: dose 0.1-0.5 µM, time 14.0 day
MDA-MB-231 [13] = experiment: Inhibition of colony formation in human MDA-MB-231 cells at low concentration measured after 14 days by crystal violet staining based analysis; type: functional, cell-based; conditions: time 14.0 day
BT-549 [14] = experiment: Inhibition of colony formation in human BT-549 cells at low concentration measured after 14 days by crystal violet staining based analysis; type: functional, cell-based; conditions: time 14.0 day
MDA-MB-231 [15] = experiment: Inhibition of colony formation in human MDA-MB-231 cells measured after 14 days by soft agar plate cloning assay; type: functional, cell-based; conditions: time 14.0 day
BT-549 [16] = experiment: Inhibition colony formation in human BT-549 cells harbouring STAT3 siRNA at 0.1 uM after 14 days by crystal violet staining based analysis; type: functional, cell-based; conditions: time 14.0 day
MDA-MB-231 [17] = experiment: Inhibition of cell migration in human MDA-MB-231 cells assessed as reduction in wound closure proportion at 0.05 to 0.5 uM incubated for 24 hrs by inverted microscopic analysis; type: functional, cell-based; conditions: dose 0.05-0.5 µM
BT-549 [18] = experiment: Inhibition of cell migration in human BT-549 cells assessed as reduction in wound closure proportion at 0.05 to 0.5 uM incubated for 24 hrs by inverted microscopic analysis; type: functional, cell-based; conditions: dose 0.05-0.5 µM
MDA-MB-231 [19] = experiment: Inhibition of cell invasion in human MDA-MB-231 cells assessed as decrease in number of invaded cells incubated for 24 hrs by crystal violet staining based inverted microscopic analysis; type: functional; conditions: dose 0.05-0.5 µM
MDA-MB-231 [20] = experiment: Downregulation of N-cadherin expression level in human MDA-MB-231 cells by Western blot analysis; type: functional, cell-based
MDA-MB-231 [21] = experiment: Induction of apoptosis in human MDA-MB-231 cells assessed as late apoptotic at 0.1 uM incubated for 48 hrs by Annexin V and PI staining based flow cytometry analysis (reference value: 2.71%); type: functional
MDA-MB-231 [22] = experiment: Antitumor activity against human MDA-MB-231 cells xenografted in female nude BALB/c mouse model assessed as reduction in tumor volume at 10 mg/kg, ip administered every other day for 30 days (reference value: 1522.98 millimeter); type: functional; conditions: time 30 day
MDA-MB-231 [23] = experiment: Antitumor activity against human MDA-MB-231 cells xenografted in female nude BALB/c mouse model assessed as reduction in tumor volume at 20 mg/kg, ip administered every other day for 30 days (reference value: 1522.98 millimeter); type: functional; conditions: time 30 day
MDA-MB-231 [24] = experiment: Antitumor activity against human MDA-MB-231 cells xenografted in female nude BALB/c mouse model assessed as tumor growth inhibition at 10 mg/kg, ip administered every other day for 30 days relative to control; type: functional; conditions: MDA-MB-231, 720 h, time 30 day, read-out: TGI
[25] = Half life in female BALB/c nude mouse administered as iv dose; type: ADME, organism-based; conditions: in vivo
[26] = MRT in female BALB/c nude mouse administered as iv dose; type: ADME, organism-based; conditions: in vivo
[27] = Toxicity in female BALB/c nude mouse assessed as effect on lung at 10 to 20 mg/kg, iv measured after 30 days by H and E staining based analysis; type: organism-based; conditions: in vivo, 720 h, dose 10-20 mg/kg, time 30 day
[28] = Toxicity in female BALB/c nude mouse assessed as effect on kidney at 10 to 20 mg/kg, iv measured after 30 days by H and E staining based analysis; type: organism-based; conditions: in vivo, 720 h, dose 10-20 mg/kg, time 30 day
[29] = Toxicity in female BALB/c nude mouse assessed as drug tolerance at 10 to 20 mg/kg, iv measured after 30 days; type: organism-based; conditions: in vivo, 720 h, dose 10-20 mg/kg, time 30 day
[30] = molecular target: T1, Signal transducer and activator of transcription 3; experiment: Competitive binding affinity to STAT3 SH2 domain (unknown origin) expressed in HEK293T cells assessed as decrease in fluorescence intensity by dual luciferase analysis; type: cell-based; conditions: dose 0.05-0.5 µM
[31] = molecular target: T1, Signal transducer and activator of transcription 3; experiment: Inhibition of STAT3 phosphorylation in human MDA-MB-231 cells assessed as upregulation of HMOX1 expression level; type: cell-based
[32] = molecular target: T1, Signal transducer and activator of transcription 3; experiment: Inhibition of STAT3 phosphorylation in human MDA-MB-231 cells assessed as upregulation of UBE2S expression level; type: cell-based
[33] = molecular target: T1, Signal transducer and activator of transcription 3; experiment: Inhibition of STAT3 phosphorylation in human MDA-MB-231 cells assessed as downregulation of KRT1 expression level; type: cell-based
[34] = molecular target: T1, Signal transducer and activator of transcription 3; experiment: Inhibition of STAT3 phosphorylation in human MDA-MB-231 cells assessed as downregulation of KRT10 expression level; type: cell-based
[35] = molecular target: T1, Signal transducer and activator of transcription 3; experiment: Inhibition of STAT3 phosphorylation in human MDA-MB-231 cells assessed as downregulation of F5 level; type: cell-based
[36] = molecular target: T1, Signal transducer and activator of transcription 3; experiment: Inhibition of STAT3 in human MDA-MB-231 cells assessed as upregulation of NDUFAB1 level; type: cell-based
[37] = molecular target: T1, Signal transducer and activator of transcription 3; experiment: Inhibition of STAT3 in human MDA-MB-231 cells assessed as upregulation of MCL1 level; type: cell-based
[38] = molecular target: T1, Signal transducer and activator of transcription 3; experiment: Inhibition of STAT3 in human MDA-MB-231 cells assessed as downregulation of CCNB1 level; type: cell-based
[39] = molecular target: T1, Signal transducer and activator of transcription 3; experiment: Inhibition of STAT3 in human MDA-MB-231 cells assessed as downregulation of SPRY1 level; type: cell-based

T1 sequence (P40763 whole entry): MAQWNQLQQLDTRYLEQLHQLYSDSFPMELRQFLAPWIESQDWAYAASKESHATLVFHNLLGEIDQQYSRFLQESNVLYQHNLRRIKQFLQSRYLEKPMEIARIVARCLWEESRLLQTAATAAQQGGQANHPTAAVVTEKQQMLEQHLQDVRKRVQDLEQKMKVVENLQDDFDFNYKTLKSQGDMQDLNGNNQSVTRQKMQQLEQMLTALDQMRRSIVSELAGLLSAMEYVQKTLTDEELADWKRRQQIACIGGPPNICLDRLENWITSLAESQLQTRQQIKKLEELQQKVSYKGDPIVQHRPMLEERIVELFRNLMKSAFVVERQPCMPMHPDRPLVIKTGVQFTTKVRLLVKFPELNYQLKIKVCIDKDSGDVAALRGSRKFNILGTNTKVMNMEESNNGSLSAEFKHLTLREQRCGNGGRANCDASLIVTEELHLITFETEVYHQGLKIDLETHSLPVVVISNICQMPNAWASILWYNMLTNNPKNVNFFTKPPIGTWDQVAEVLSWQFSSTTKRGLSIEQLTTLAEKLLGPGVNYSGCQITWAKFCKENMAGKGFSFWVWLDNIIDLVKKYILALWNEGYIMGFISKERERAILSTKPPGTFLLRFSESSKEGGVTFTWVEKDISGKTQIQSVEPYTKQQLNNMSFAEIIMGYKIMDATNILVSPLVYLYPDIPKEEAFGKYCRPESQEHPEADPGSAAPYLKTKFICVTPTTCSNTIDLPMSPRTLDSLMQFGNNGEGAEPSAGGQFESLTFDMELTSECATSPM

COc1cccc(C(=O)Nc2sc3c(c2C#N)CCN(C(=O)Nc2ccccc2OC)C3)c1
IC50 (MDA-MB-231 [1]): 30 nM
inhibition [2]: Time-dependent-effect
inhibition [3]: Dose-dependent-effect
Activity (MDA-MB-231 [4]): Dose-dependent-effect
Activity (MDA-MB-231 [5]): Dose-dependent-effect
Activity (BT-549 [6]): Dose-dependent-effect
inhibition (Homo sapiens): Active; Compound Showed Little Inhibitory Effect
Activity (MDA-MB-231 [7]): inactive
Activity (MDA-MB-231 [8]): inactive
Activity (MDA-MB-231 [9]): inactive
Activity (BT-549 [10]): inactive
Activity (BT-549 [11]): inactive
inhibition (BT-549 [12]): Dose-dependent-effect
inhibition (MDA-MB-231 [13]): Active; Compound Showed Robust Inhibition Compared To Positive Control
inhibition (BT-549 [14]): Active; Compound Showed Robust Inhibition Compared To Positive Control
inhibition (MDA-MB-231 [15]): Active
inhibition (BT-549 [16]): inactive
inhibition (MDA-MB-231 [17]): Active
inhibition (BT-549 [18]): Active
inhibition (MDA-MB-231 [19]): Dose-dependent-effect
Activity (MDA-MB-231 [20]): Active
Activity (MDA-MB-231 [21]): 16.08%
tumor volume (MDA-MB-231 [22]): 762 mm³
tumor volume (MDA-MB-231 [23]): 656 mm³
inhibition in vivo at 10 mg/kg (MDA-MB-231 [24]): 51.5%
half-life [25]: 1380 min
MRT [26]: 10 h
Activity [27]: Non-toxic
Activity [28]: Non-toxic
Activity [29]: Non-toxic
Activity [30]: Dose-dependent-effect
inhibition [31]: Active
inhibition [32]: Active
inhibition [33]: Active
inhibition [34]: Active
inhibition [35]: Active
inhibition [36]: Active
inhibition [37]: Active
inhibition [38]: Active
inhibition [39]: Active

Reference: ChEMBL document CHEMBL6114982, “Structural optimization and characterization of highly potent and selective STAT3 inhibitors for the treatment of triple negative breast cancer” (Eur J Med Chem, 2025)
